Results from patent US8912121B2, “Herbicidal compositions comprising 4-amino-3-chloro-5-fluoro-6-(4-chloro-2-fluoro-3-methoxyphenyl)pyridine-2-carboxylic acid or a derivative thereof and certain PS II inhibitors” (Dow Agrosciences LLC, priority 2012, dated 2014).
Where “and” joins values, the source holds several entries; their conditions need not be identical. Equal values may be shown once.

How the values were obtained:
Assay in all cases: Postemergence foliar-applied mixtures, direct seeded rice, greenhouse
[1] = tested on: ECHCO (Echinochloa colona, junglerice); type: in vivo, Echinochloa colona (L.) Link
Description: (§1) Seeds or nutlets of the desired test plant species were planted in a soil matrix prepared by mixing a loam or sandy loam soil (e.g., 28.6 percent silt, 18.8 percent clay, and 52.6 percent sand, with a pH of about 5.8 and an organic matter content of about 1.8 percent) and calcareous grit in an 80 to 20 ratio. The soil matrix was contained in plastic pots with a volume of 1 quart and a surface area of 83.6 square centimeters (cm^2). When required to ensure good germination and healthy plants, a fungicide treatment and/or other chemical or physical treatment was applied. The plants were grown for 8-22 days in a greenhouse with an approximate 14 h photoperiod which was maintained at about 29° C. during the day and 26° C. during the night. Nutrients (Peters Excel® 15-5-15 5-Ca 2-Mg and iron chelate) were applied in the irrigation solution as needed and water was added on a regular basis. Supplemental lighting was provided with overhead metal halide 1000-Watt lamps as necessary. The plants were employed for testing when they reached the first through fourth true leaf stage.
(§2) Treatments consisted of the acid or esters of 4-amino-3-chloro-5-fluoro-6-(4-chloro-2-fluoro-3-methoxy-phenyl) pyridine-2-carboxylic acid (Compound A), each formulated as an SC (suspension concentrate), and various herbicidal components alone and in combination. Forms of compound A were applied on an acid equivalent basis.
(§3) Other herbicidal components were applied on an active ingredient basis and included Photosystem II (PSII)-inhibiting herbicides propanil formulated as Stam® M4 EC, bentazon-sodium formulated as Basagran®, atrazine formulated as Atrazine 90 WDG, bromoxynil octanoate ester formulated as Buctril®, simetryne (technical grade material), simazine formulated as Princep® Caliber 90, ioxynil (technical grade material), cyanazine (technical grade material), and hexazinone (technical grade material).
(§4) Treatment requirements were calculated based upon the rates being tested, the concentration of active ingredient or acid equivalent in the formulation, and a 12 mL application volume at a rate of 187 L/ha.
(§5) For treatments comprised of formulated compounds, measured amounts of compounds were placed individually in 25 mL glass vials and diluted in a volume of 1.25% (v/v) Agri-Dex® crop oil concentrated to obtain 12× stock solutions. […] Application solutions were prepared by adding an appropriate amount of each stock solution (e.g., 1 mL) and diluted to the appropriate final concentrations with the addition of 10 mL of an aqueous mixture of 1.25% (v/v) crop oil concentrate so that the final spray solutions contained 1.25+/−0.05% (v/v) crop oil concentrate.
(§6) For treatments comprised of technical compounds, weighed amounts can be placed individually in 25 mL glass vials and dissolved in a volume of 97:3 v/v acetone/DMSO to obtain 12× stock solutions. […] Application solutions can be prepared by adding an appropriate amount of each stock solution (e.g., 1 mL) and diluted to the appropriate final concentrations with the addition of 10 mL of an aqueous mixture of 1.5% (v/v) crop oil concentrate so that the final spray solutions contain 1.25% (v/v) crop oil concentrate. When technical materials are used, the concentrated stock solutions can be added to the spray solutions so that the final acetone and DMSO concentrations of the application solutions are 16.2% and 0.5%, respectively.
(§7) For treatments comprised of formulated and technical compounds, weighed amounts of the technical materials were placed individually in 25 mL glass vials and dissolved in a volume of 97:3 v/v acetone/DMSO to obtain 12× stock solutions, and measured amounts of the formulated compounds were placed individually in 25 mL glass vials and diluted in a volume of 1.5% (v/v) crop oil concentrate or water to obtain 12× stock solutions. […]

[2] = tested on: CYPIR (Cyperus iria, rice flatsedge); type: in vivo, Cyperus iria L.
Description: as §1, §2, §3, §4, §5, §6, §7

[3] = tested on: ECHCG (Echinochloa crusgalli, barnyardgrass); type: in vivo, Echinochloa crusgalli (L.) Beauv.
Method: as §1, with “When required to ensure good germination and healthy plants, a fungicide treatment and/or other chemical or physical treatment was applied.” left out
as §2, §3, §5, §6
For treatments comprised of formulated and technical compounds, weighed amounts of the technical materials were placed individually in 25 mL glass vials and dissolved in a volume of 97:3 v/v acetone/DMSO to obtain 12× stock solutions, and measured amounts of the formulated compounds were placed individually in 25 mL glass vials and diluted in a volume of 1.5% (v/v) crop oil concentrate or water to obtain 12× stock solutions. […] Application solutions were prepared by adding an appropriate amount of each stock solution (eg, 1 mL) and diluted to the appropriate final concentrations with the addition of an appropriate amount of an aqueous mixture of 1.5% (v/v) crop oil concentrate so that the final spray solutions contained 1.25% (v/v) crop oil concentrate.

## CCNc1nc(Cl)nc(NCC)n1 [Simazine, 6-chloro-N,N′-diethyl-1,3,5-triazine-2,4-diamine, reference compound]
[1]; 560 g ai/ha, 20 DAA
  Visual Weed Control (%) Obs: 0%
[1]; 1120 g ai/ha, 20 DAA
  Visual Weed Control (%) Obs: 0%
[1]; 2240 g ai/ha, 20 DAA
  Visual Weed Control (%) Obs: 0%
[2]; 560 g ai/ha, 20 DAA
  Visual Weed Control (%) Obs: 0%
[2]; 1120 g ai/ha, 20 DAA
  Visual Weed Control (%) Obs: 0%
[2]; 2240 g ai/ha, 20 DAA
  Visual Weed Control (%) Obs: 30%
[3]; 560 g ai/ha, 20 DAA
  Visual Weed Control (%) Obs: 0%
[3]; 1120 g ai/ha, 20 DAA
  Visual Weed Control (%) Obs: 0%
[3]; 2240 g ai/ha, 20 DAA
  Visual Weed Control (%) Obs: 0%

## COc1c(Cl)ccc(-c2nc(C(=O)O)c(Cl)c(N)c2F)c1F [Compound A Acid, 4-amino-3-chloro-6-(4-chloro-2-fluoro-3-methoxyphenyl)-5-fluoropyridine-2-carboxylic acid]
[1]; 4.38 g ae/ha, 21 DAA
  Visual Weed Control (%) Obs: 43%
[1]; 4.38 g ae/ha, 22 DAA
  Visual Weed Control (%) Obs: 20%
[1]; 8.75 g ae/ha, 21 DAA
  Visual Weed Control (%) Obs: 63%
[2]; 4.38 g ae/ha, 22 DAA
  Visual Weed Control (%) Obs: 15%
[3]; 4.38 g ae/ha, 21 DAA
  Visual Weed Control (%) Obs: 33%
[3]; 4.38 g ae/ha, 22 DAA
  Visual Weed Control (%) Obs: 20%
[3]; 8.75 g ae/ha, 21 DAA
  Visual Weed Control (%) Obs: 55%

## CCNc1nc(Cl)nc(NC(C)C)n1 [Atrazine, 6-chloro-N-ethyl-N′-(1-methylethyl)-1,3,5-triazine-2,4-diamine, reference compound]
[1]; 280 g ai/ha, 22 DAA
  Visual Weed Control (%) Obs: 10%
[1]; 560 g ai/ha, 22 DAA
  Visual Weed Control (%) Obs: 10%
[1]; 1120 g ai/ha, 22 DAA
  Visual Weed Control (%) Obs: 60%
[2]; 280 g ai/ha, 22 DAA
  Visual Weed Control (%) Obs: 0%
[2]; 560 g ai/ha, 22 DAA
  Visual Weed Control (%) Obs: 100%
[2]; 1120 g ai/ha, 22 DAA
  Visual Weed Control (%) Obs: 80%
[3]; 280 g ai/ha, 22 DAA
  Visual Weed Control (%) Obs: 0%
[3]; 560 g ai/ha, 22 DAA
  Visual Weed Control (%) Obs: 20%
[3]; 1120 g ai/ha, 22 DAA
  Visual Weed Control (%) Obs: 70%

## CCC(=O)Nc1ccc(Cl)c(Cl)c1 [Propanil, N-(3,4-dichlorophenyl)propanamide, reference compound]
[1]; 420 g ai/ha, 21 DAA
  Visual Weed Control (%) Obs: 10%
[1]; 840 g ai/ha, 21 DAA
  Visual Weed Control (%) Obs: 25%
[1]; 1680 g ai/ha, 21 DAA
  Visual Weed Control (%) Obs: 25%
[3]; 420 g ai/ha, 21 DAA
  Visual Weed Control (%) Obs: 10%
[3]; 840 g ai/ha, 21 DAA
  Visual Weed Control (%) Obs: 10%
[3]; 1680 g ai/ha, 21 DAA
  Visual Weed Control (%) Obs: 40%

## COc1c(Cl)ccc(-c2nc(C(=O)OCc3ccccc3)c(Cl)c(N)c2F)c1F [Compound A Benzyl Ester, benzyl ester of 4-amino-3-chloro-5-fluoro-6-(4-chloro-2-fluoro-3-methoxy-phenyl)pyridine-2-carboxylic acid]
[1]; 4.38 g ae/ha, 21 DAA
  Visual Weed Control (%) Obs: 60%
[1]; 8 g ae/ha, 20 DAA
  Visual Weed Control (%) Obs: 65%
[1]; 8 g ae/ha, 21 DAA
  Visual Weed Control (%) Obs: 75% and 50%
[1]; 8.75 g ae/ha, 21 DAA
  Visual Weed Control (%) Obs: 68%
[1]; 16 g ae/ha, 20 DAA
  Visual Weed Control (%) Obs: 85%
[1]; 16 g ae/ha, 21 DAA
  Visual Weed Control (%) Obs: 85% and 65%
[1]; 17.5 g ae/ha, 21 DAA
  Visual Weed Control (%) Obs: 83%
[1]; 32 g ae/ha, 20 DAA
  Visual Weed Control (%) Obs: 95%
[1]; 32 g ae/ha, 21 DAA
  Visual Weed Control (%) Obs: 95% and 85%
[2]; 8 g ae/ha, 20 DAA
  Visual Weed Control (%) Obs: 70%
[2]; 8 g ae/ha, 22 DAA
  Visual Weed Control (%) Obs: 10%
[2]; 16 g ae/ha, 20 DAA
  Visual Weed Control (%) Obs: 90%
[2]; 16 g ae/ha, 22 DAA
  Visual Weed Control (%) Obs: 60%
[2]; 32 g ae/ha, 20 DAA
  Visual Weed Control (%) Obs: 90%
[3]; 4.38 g ae/ha, 21 DAA
  Visual Weed Control (%) Obs: 48%
[3]; 8 g ae/ha, 20 DAA
  Visual Weed Control (%) Obs: 70%
[3]; 8 g ae/ha, 21 DAA
  Visual Weed Control (%) Obs: 45%
[3]; 8 g ae/ha, 22 DAA
  Visual Weed Control (%) Obs: 35%
[3]; 8.75 g ae/ha, 21 DAA
  Visual Weed Control (%) Obs: 55%
[3]; 16 g ae/ha, 20 DAA
  Visual Weed Control (%) Obs: 90%
[3]; 16 g ae/ha, 21 DAA
  Visual Weed Control (%) Obs: 85%
[3]; 16 g ae/ha, 22 DAA
  Visual Weed Control (%) Obs: 65%
[3]; 17.5 g ae/ha, 21 DAA
  Visual Weed Control (%) Obs: 85%
[3]; 32 g ae/ha, 20 DAA
  Visual Weed Control (%) Obs: 90%
[3]; 32 g ae/ha, 21 DAA
  Visual Weed Control (%) Obs: 90%
[3]; 32 g ae/ha, 22 DAA
  Visual Weed Control (%) Obs: 80%
